From patent US12102689B2, “Anti-CD22 antibody-maytansine conjugates and methods of use thereof” (R.P. Scherer Technologies, LLC, priority 2015, dated 2024) come the findings set out here.

Format in all cases: cell-based
For test [1], the system named is Ramos cells. The test can be described thus: In vitro cytotoxicity (Cell Titer-Glo, 5 d). The following applies: Homo sapiens, 120 h. As to the method:
(§1) The CD22-positive B-cell lymphoma cell lines, Ramos and WSU-DLCL2, were obtained from the ATCC and DSMZ cell banks, respectively. The cells were maintained in RPMI-1640 medium (Cellgro, Manassas, VA) supplemented with 10% fetal bovine serum (Invitrogen, Grand Island, NY) and Glutamax (Invitrogen). 24 h prior to plating, cells were passaged to ensure log-phase growth. On the day of plating, 5000 cells/well were seeded onto 96-well plates in 90 μL normal growth medium supplemented with 10 IU penicillin and 10 μg/mL streptomycin (Cellgro). Cells were treated at various concentrations with 10 μL of diluted analytes, and the plates were incubated at 37° C. in an atmosphere of 5% CO2. After 5 d, 100 μL/well of Cell Titer-Glo reagent (Promega, Madison, WI) was added, and luminescence was measured using a Molecular Devices SpectraMax M5 plate reader. GraphPad Prism software was used for data analysis.
(In general: Cellular ATP, detected with luciferase, serves as a proxy for viable cell number.)

The test system of test [2] is WSU-DLCL2 cells. The test can be described thus: In vitro cytotoxicity (Cell Titer-Glo, 5 d). The note with it: Homo sapiens, WSUDLCL2, 120 h. As to the method:
as §1

In test [3] the test system is MDR1+ WSU-DLCL2 cells. The test can be described thus: In vitro cytotoxicity assay on MDR1-expressing cells. On the procedure: (§2) MDR1 (ABCB1) cDNA was obtained from Sino Biological and cloned into a pEF plasmid with a hygromycin selection marker. An AMAXA Nucleofector™ instrument was used to electroporate Ramos (ATCC CRL-1923) and WSU-DLCL2 (DSMZ ACC 575) cells according to the manufacturer's instructions. After selection with hygromycin (Invitrogen 10687010), the pools were enriched with paclitaxel treatment (25 nM for up to 10 days) to further select cells with functional MDR1. The resulting cells were maintained under hygromycin selection in RPMI (Gibco 21870-092) supplemented with 10% fetal bovine serum (FBS) and 1× GlutaMax (Gibco 35050-079).
(§3) Cell lines were plated in 96-well plates (Costar 3610) at a density of 5×10^4 cells/well in 100 μL of growth media and allowed to rest for 5 h. Serial dilution of test samples was performed in RPMI at 6× the final concentration and 20 μL was added to the cells. After incubation at 37° C. with 5% CO2 for 5 days, viability was measured using a Promega CellTiter 96® AQueous One Solution Cell Proliferation Assay (G3581) according to the manufacturer's instructions. GI50 curves were calculated in GraphPad Prism using the ADC's drug-to-antibody ratio (DAR) value to normalize the dose to the payload concentration.

Test [4] concerns MDR1+ Ramos cells. The test is described as above. The note with it: MDR1+ Ramos vs wild-type. As to the method:
as §2, §3

In general, IC50 refers to the midpoint of a concentration-inhibition curve. A high value points to weaker potency. As for `COc1cc2cc(c1Cl)N(C)C(=O)C[C@H](OC(=O)[C@H](C)N(C)C(C)=O)[C@]1(C)O[C@H]1[C@H](C)[C@@H]1C[C@@](O)(NC(=O)O1)[C@H](OC)/C=C/C=C(\C)C2` [free maytansine, maytansine], the concentration for half-maximal inhibition (IC50) is 0.04 nM in test [1] and 0.086 nM in test [2]. The “potency on cotreatment with cyclosporin (MDR1 inhibitor)” value in test [3] (MDR1+ WSU-DLCL2 cells plus cyclosporin) is recorded as “restored the original potency”. For the same molecule, the “fold less efficacious in MDR1-expressing cells” value in test [3] (MDR1+ WSU-DLCL2 vs wild-type) and in test [4] was roughly 10 fold each time.
